Read-outs that look alike come from different tables or passages of the source.

Data on 21 molecules can be found in patent publication US10227324B2 (Shanghai Haiyan Pharmaceutical Technology Co., Ltd., priority 2014, dated 2019).

Assay [1] deals with T1, PI3K-α kinase (p110α/p85α) (Homo sapiens, UniProt P42336).
T1 construct: purchased Invitrogen PV4788
The experiment in a line: Determination of PI3K kinase activity (ADP Transcreener, fluorescence polarization). The format is biochemical. Particulars: ATP 10 μM. The method, then:
(§1) The inhibition of PI3K kinase activity by the compound to be tested was determined by the following method. The working concentration of each component in the 25 μL enzyme reaction system was: p110α/p85α 3 ng (or p110β/p85α 60 ng, or p110δ/p85α 90 ng, or p110γ 100 ng), ATP 10 μM, PIP2: PS (Invitrogen PV5100) 30 μM and the DMSO concentration was 2% after addition of the compound to be tested.
(§2) At the time of the test, the compound to be tested was dissolved in dimethylsulfoxide (DMSO) according to the desired concentration of the experiment. The compound to be tested was gradiently diluted 3 times (0.00046-1 μM, 8 concentration points) with 10% DMSO. 5 μL of the compound to be tested was added to each well of a 96-well plate (Greiner 675076) in duplicate. […] 10 μL of ATP/PIP2: PS and 10 μL of the PI3K enzyme working solution were added to each well in a 96-well plate. The plate was shaken and mixed uniformly, and then incubated at 25° C. for 1 hour. At the same time, ADP and ATP (0.01 μM, 0.02 μM, 0.04 μM, 0.06 μM, 0.08 μM[…], 0.1 μM, 0.25 μM, 0.5 μM, 1 μM, 2 μM, 5 μM, 10 μM, 12 concentration points) were diluted with buffer to set the standard curve. After completion of the enzyme reaction, 25 μL of ADP assay solution (1% 100×ADP tracer, 0.79% ADP antibody and 10% 10× reaction stop solution) was added and incubated at 25° C. for 1 hour. Fluorescence polarization value [mP] of each well was measured with a Perkin Elmer Victor X5 Fluorescent Microplate. The ADP concentration [ADP] was calculated from the ADP/ATP standard curve and the IC50 values were calculated using the XLFit software.
On the technique in general: In fluorescence polarisation assays a small probe gives low polarisation when free and higher when bound to something large.

For another assay, the system named is MCF-7 cells. The experiment in a line: Cell inhibitory activity detected by MTT assay, MCF-7. The format is cell-based. The note with it: Homo sapiens, MCF7, 72 h, read-out: MCF-7 cell (IC50/nM), cell growth inhibition. The method, then: (§3) The MTT assay procedure and steps were carried out as well known to those skilled in the art, and all the reagents used in the methods were commercially available. The cells in logarithmic growth phase were digested with 0.25% EDTA trypsin (Gibco, 25200-056) and resuspended in fresh medium. 90 μL of the cell suspension was inoculated into a 96-well cell culture plate (BD Faclon 353072) with a suitable cell density and cultured at 37° C. under 5% CO2. After the cells adhered, 10 μL of the test compound at different concentrations (0.0046-10 μM, 8 concentration points) was added and incubated for another 72 h. 10 μL of MTT (5 mg/mL PBS solution) (Sigma, M5655) was added to react for 4 h. The absorbance at 492 nm was measured by using Thermo Scientific Multiskan MK3 microplate reader and IC50 was calculated using XLFIT 5.0 software (UK IDBS). MCF-7 cell culture medium: DMEM medium (Hyclone SH30243.01B+10% FBS (Gibco 10099-141)
In general terms: Formazan colour is commonly taken as a measure of viable cells.

Another assay concerns the target T2, PI3K-γ kinase (p110γ) (Homo sapiens, UniProt P48736).
T2 construct: purchased Invitrogen PV4786
In words: Determination of PI3K kinase activity (ADP Transcreener, fluorescence polarization). The note with it: Table 1; ATP 10 μM; read-out: PI3K-γ/nM (IC50 of inhibitory activity against PI3K kinase). The format is biochemical. The method, then:
The PI3K kinase used in the experiment: p110α/p85α (Invitrogen PV4788), p110β/p85α (Millipore 14-603), p110δ/p85α (Millipore 14-604M), and p110γ (Invitrogen PV4786).
as §1
as §2, with “duplicate. 2.5× buffer was prepared and 1 μL of DTT (Millipore 20-265) was added to each 800 μL of 2.5× buffer.” for “duplicate.”

Another assay concerns T47D cells. In words: Cell inhibitory activity detected by MTT assay, T47D. The format is cell-based. The note with it: Homo sapiens, T47D, 72 h, read-out: T47D cell (IC50/nM), cell growth inhibition. The method, then: as §3, with “T47D” for “MCF-7”, “RPMI-1640” for “DMEM”, “SH30809.01B)+10%” for “SH30243.01B+10%”
For assay [2], the target named is T3, PI3K-β kinase (p110β/p85α) (Homo sapiens, UniProt P42338).
T3 construct: purchased Millipore 14-603
The experiment in a line: Determination of PI3K kinase activity (ADP Transcreener, fluorescence polarization). The assay is classed as biochemical. The note with it: Table 1; ATP 10 μM; read-out: PI3K-β/nM (IC50 of inhibitory activity against PI3K kinase). How it is done:
as §1, §2

For assay [3], the target named is T4, PI3K-δ kinase (p110δ/p85α) (Homo sapiens, UniProt O00329).
T4 construct: purchased Millipore 14-604M
The assay is described as above. The assay is classed as biochemical. The note with it: Table 1; ATP 10 μM; read-out: PI3K-δ/nM (IC50 of inhibitory activity against PI3K kinase). The method, then: as §1, §2

Setting [4] is: Table 2, read-out: PI3K-α/nM (IC50 of inhibitory activity against PI3K-α kinase).
[5] abbreviates: Table 1, read-out: PI3K-α/nM (IC50 of inhibitory activity against PI3K kinase).

T2 sequence (P48736 whole entry): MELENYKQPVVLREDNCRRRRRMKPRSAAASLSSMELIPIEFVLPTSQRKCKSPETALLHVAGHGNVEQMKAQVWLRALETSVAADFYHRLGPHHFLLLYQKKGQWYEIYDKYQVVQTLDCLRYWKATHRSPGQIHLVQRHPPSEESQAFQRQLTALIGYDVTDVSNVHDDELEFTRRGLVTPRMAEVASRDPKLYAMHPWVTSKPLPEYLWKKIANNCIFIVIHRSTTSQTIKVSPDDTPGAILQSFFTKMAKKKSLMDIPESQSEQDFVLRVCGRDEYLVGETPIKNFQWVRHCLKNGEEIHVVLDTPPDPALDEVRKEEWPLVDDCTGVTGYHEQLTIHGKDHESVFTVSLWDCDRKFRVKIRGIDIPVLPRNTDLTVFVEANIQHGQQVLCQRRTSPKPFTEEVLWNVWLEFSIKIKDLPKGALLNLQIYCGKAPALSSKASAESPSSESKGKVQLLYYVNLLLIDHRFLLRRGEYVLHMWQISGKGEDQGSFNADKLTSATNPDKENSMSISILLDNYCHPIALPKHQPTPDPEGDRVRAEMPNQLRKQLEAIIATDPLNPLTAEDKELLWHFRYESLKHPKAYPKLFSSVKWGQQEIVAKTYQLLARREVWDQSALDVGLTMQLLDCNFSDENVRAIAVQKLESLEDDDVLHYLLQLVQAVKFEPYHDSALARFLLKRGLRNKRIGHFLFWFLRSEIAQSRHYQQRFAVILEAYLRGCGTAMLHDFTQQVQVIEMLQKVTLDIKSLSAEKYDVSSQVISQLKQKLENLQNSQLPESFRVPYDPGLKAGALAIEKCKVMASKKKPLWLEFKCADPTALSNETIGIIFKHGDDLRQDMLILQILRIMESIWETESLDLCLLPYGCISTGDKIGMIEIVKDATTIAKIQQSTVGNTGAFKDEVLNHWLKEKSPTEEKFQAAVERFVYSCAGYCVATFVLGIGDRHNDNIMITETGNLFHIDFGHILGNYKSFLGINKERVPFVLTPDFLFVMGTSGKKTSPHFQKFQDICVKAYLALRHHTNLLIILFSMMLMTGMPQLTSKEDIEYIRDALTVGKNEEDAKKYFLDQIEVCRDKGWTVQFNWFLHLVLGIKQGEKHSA
T1 sequence (P42336 whole entry): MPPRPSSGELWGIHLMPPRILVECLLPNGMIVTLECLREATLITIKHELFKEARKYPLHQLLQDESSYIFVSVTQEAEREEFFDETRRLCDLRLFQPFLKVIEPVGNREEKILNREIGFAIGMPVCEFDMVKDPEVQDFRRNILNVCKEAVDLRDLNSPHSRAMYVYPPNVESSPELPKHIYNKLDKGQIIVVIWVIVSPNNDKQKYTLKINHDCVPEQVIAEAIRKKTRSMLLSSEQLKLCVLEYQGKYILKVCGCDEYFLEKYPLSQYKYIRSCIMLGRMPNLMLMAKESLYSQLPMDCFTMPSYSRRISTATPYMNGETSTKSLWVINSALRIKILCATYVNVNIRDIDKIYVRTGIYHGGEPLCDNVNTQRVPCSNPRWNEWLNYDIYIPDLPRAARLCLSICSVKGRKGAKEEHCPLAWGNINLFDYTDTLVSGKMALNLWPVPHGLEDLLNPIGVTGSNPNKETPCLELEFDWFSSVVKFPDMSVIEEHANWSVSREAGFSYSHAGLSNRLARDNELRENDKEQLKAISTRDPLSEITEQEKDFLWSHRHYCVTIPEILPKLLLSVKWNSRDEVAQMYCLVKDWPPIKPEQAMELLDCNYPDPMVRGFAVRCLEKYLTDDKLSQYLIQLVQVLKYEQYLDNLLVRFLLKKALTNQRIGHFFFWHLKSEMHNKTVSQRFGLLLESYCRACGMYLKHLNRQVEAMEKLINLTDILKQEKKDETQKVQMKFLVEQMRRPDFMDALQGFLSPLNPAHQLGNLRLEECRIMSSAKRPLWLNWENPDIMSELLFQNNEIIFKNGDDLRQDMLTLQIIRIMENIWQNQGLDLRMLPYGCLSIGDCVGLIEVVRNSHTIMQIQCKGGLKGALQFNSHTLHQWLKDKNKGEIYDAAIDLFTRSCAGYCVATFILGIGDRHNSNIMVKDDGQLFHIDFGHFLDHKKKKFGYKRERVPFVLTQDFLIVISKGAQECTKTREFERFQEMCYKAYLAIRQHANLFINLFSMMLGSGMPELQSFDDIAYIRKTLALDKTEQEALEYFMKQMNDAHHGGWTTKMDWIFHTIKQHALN
T1 sequence (P27986 whole entry partner): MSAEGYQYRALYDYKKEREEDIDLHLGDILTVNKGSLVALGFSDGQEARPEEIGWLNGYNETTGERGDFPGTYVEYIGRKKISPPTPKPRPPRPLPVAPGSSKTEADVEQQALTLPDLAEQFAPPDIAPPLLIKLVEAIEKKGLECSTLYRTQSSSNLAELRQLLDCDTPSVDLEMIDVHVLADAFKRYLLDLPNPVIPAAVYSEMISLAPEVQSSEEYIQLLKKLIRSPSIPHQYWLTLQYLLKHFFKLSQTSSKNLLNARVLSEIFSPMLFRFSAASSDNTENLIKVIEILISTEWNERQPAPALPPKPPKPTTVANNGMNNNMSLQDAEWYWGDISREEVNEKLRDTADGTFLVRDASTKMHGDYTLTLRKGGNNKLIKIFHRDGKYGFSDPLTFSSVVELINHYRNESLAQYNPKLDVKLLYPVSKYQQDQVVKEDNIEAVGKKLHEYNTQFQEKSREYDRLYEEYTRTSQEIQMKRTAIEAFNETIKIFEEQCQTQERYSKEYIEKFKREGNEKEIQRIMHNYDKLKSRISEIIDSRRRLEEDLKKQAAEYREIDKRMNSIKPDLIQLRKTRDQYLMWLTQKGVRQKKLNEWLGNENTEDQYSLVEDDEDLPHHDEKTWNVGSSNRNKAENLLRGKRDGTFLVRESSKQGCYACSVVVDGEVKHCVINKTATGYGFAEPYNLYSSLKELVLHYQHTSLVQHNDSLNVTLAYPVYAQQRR
T4 sequence (O00329 whole entry): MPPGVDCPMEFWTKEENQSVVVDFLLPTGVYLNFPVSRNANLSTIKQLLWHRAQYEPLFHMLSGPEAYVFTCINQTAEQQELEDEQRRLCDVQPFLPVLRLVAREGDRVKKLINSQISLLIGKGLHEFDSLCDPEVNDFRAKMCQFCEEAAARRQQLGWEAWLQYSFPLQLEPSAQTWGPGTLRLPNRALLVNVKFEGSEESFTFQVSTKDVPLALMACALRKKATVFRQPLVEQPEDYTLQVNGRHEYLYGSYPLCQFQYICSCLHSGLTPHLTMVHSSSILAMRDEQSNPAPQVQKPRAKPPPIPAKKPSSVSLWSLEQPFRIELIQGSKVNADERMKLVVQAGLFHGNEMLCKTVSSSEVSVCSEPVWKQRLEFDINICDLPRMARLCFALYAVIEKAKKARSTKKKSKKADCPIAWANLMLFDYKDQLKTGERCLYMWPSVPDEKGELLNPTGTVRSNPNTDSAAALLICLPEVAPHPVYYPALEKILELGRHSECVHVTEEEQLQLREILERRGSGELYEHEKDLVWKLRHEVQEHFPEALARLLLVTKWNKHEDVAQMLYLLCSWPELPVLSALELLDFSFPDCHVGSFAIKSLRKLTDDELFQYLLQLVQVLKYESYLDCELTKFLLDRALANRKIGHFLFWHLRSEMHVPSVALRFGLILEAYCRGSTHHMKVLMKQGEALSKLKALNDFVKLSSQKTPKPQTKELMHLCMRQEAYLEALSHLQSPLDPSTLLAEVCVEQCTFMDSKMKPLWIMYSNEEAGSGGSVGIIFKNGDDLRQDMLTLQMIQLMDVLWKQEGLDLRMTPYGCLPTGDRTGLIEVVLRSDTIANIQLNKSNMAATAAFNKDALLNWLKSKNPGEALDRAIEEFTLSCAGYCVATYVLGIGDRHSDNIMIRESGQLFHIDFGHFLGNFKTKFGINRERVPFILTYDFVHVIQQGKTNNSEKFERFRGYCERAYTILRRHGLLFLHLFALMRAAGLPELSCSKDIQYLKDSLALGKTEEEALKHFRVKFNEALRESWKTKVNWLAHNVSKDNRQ
T4 sequence (P27986 whole entry partner): as the sequence (P27986 whole entry partner) above
T3 sequence (P42338 whole entry): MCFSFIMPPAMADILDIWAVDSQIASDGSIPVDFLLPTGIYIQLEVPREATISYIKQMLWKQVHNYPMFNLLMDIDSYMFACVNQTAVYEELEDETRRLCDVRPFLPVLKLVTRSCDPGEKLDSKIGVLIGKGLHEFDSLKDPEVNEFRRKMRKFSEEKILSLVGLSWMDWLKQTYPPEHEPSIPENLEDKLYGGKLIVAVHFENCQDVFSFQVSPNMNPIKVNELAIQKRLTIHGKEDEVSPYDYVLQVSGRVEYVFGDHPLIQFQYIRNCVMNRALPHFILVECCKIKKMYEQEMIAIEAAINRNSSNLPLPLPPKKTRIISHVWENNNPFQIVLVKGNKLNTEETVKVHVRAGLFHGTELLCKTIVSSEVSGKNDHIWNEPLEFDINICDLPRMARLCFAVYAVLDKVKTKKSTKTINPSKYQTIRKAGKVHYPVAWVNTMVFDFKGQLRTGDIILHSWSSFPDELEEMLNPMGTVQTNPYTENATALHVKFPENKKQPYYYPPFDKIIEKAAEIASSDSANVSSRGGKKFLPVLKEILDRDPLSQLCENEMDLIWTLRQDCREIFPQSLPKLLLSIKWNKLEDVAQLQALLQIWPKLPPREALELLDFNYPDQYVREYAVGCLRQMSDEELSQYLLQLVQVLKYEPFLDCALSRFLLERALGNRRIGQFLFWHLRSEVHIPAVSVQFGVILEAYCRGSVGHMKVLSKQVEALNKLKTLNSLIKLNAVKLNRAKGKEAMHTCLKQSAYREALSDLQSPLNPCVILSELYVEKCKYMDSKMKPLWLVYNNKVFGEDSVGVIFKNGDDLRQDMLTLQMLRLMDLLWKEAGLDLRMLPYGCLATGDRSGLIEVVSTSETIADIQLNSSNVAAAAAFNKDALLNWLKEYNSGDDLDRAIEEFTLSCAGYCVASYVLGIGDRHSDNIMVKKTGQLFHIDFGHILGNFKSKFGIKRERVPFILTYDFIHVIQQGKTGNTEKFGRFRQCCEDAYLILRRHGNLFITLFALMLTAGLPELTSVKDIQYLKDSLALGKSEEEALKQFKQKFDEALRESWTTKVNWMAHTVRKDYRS
T3 sequence (P27986 whole entry partner): as the sequence (P27986 whole entry partner) above

As for `CC(C)(c1cc(-c2cnc(N)cc2C(F)(F)F)nc(N2CCOCC2)n1)S(=O)(=O)c1ccccc1Cl` [Compound S-80], the IC50 in assay [1] (setting [4]) was determined as 31 nM; in the assay with MCF-7 cells, 474 nM.
Turning to `CC(C)(c1cc(-c2cnc(N)cc2Cl)nc(N2CCOCC2)n1)S(=O)(=O)c1ccccc1` [Compound S-55, 4-chloro-5-(2-morpholinyl-6-(2-(phenylsulfonyl)propan-2-yl)pyrimidin-4-yl)pyridin-2-amine], the IC50 in assay [1] (setting [4]) came out at 40 nM.
Turning to `CS(=O)(=O)NC1(c2cc(-c3cnc(N)cc3Cl)nc(N3CCOCC3)n2)CC1` [Compound S-90], in assay [1] (setting [4]), the IC50 was determined as 75 nM.
As for `CS(=O)(=O)C1(c2cc(-c3cnc(N)cc3C(F)(F)F)nc(N3CCOCC3)n2)CC1` [Compound S-1, 5-(6-(1-(methylsulfonyl)cyclopropyl)-2-morpholinopyrimidin-4-yl)-4-(trifluoromethyl)pyridin-2-amine], the IC50 was 16 nM in assay [1] (setting [5]) and 288 nM at PI3K-γ kinase (p110γ).
Take `CS(=O)(=O)Cc1cc(-c2cnc(N)cc2C(F)(F)F)nc(N2CCOCC2)n1` [Compound S-62, 5-(6-(methylsulfonylmethyl)-2-morpholinopyrimidin-4-yl)-4-(trifluoromethyl)pyridin-2-amine]: the IC50 in assay [1] (setting [4]) turned out to be 189 nM.
Same read-out and setting: the result for `Nc1cc(C(F)(F)F)c(-c2cc(C3(S(=O)(=O)c4ccc(F)c(F)c4)CC3)nc(N3CCOCC3)n2)cn1` [Compound S-77] reads 62 nM.
As to `COc1nc(N)ncc1-c1cc(C2(S(C)(=O)=O)CCC2)nc(N2CCOC[C@@H]2C)n1` [Compound S-43], the IC50 in the assay on T47D cells came out at 317 nM.
Turning to `CC(C)(c1cc(-c2cnc(N)cc2C(F)(F)F)nc(N2CCOCC2)n1)S(=O)(=O)c1ccccc1F` [Compound S-65], the IC50 in assay [1] (setting [5]) turned out to be 22 nM; in assay [1] (setting [4]), 22 nM; in assay [2], 1220 nM; in the assay on T47D cells, 280 nM; in the assay on MCF-7 cells, 469 nM.
Turning to `C[C@H]1COCCN1c1nc(-c2cnc(N)cc2C(F)(F)F)cc(C2(S(C)(=O)=O)CCCC2)n1` [Compound S-42], the IC50 in assay [2] amounted to 1210 nM; in assay [3], 324 nM; on PI3K-γ kinase (p110γ), 718 nM; in the assay on T47D cells it was 139 nM; in the assay with MCF-7 cells it was 159 nM.
With `CS(=O)(=O)C1(c2cc(-c3ccc(N)cc3C(F)(F)F)nc(N3CCOCC3)n2)CC1` [Comparative compound 3, 4-(6-(1-(methylsulfonyl)cyclopropyl)-2-morpholinopyrimidin-4-yl)-3-(trifluoromethyl)aniline, reference compound], in assay [1] (setting [4]), the IC50 was more than 1000 nM.
Turning to `CC(C)(c1cc(-c2cnc(N)cc2Cl)nc(N2CCOCC2)n1)S(=O)(=O)c1cccc(F)c1` [Compound S-70], the IC50 in assay [1] (setting [5]) stood at 22 nM; in assay [1] (setting [4]), 22 nM; in assay [2] it was 525 nM; in the assay with T47D cells it was 219 nM.
For the molecule `C[C@@H]1COCCN1c1nc(-c2cnc(N)cc2C(F)(F)F)cc(C(C)(C)O)n1` [Compound S-72], the IC50 in assay [1] (setting [5]) stood at 18 nM; in assay [1] (setting [4]) it was 18 nM; in assay [2], 797 nM; in assay [3] it was 370 nM; on PI3K-γ kinase (p110γ) it was 1150 nM.
Regarding `CNC1(c2cc(-c3cnc(N)cc3C(F)(F)F)nc(N3CCOC[C@@H]3C)n2)CCC1` [Compound S-27, (S)-5-(6-(1-(methylamino)cyclobutyl)-2-(3-methylmorpholino)pyrimidin-4-yl)-4-(trifluoromethyl)pyridin-2-amine], the IC50 in assay [1] (setting [4]) came out at 285 nM.
For the molecule `COC(C)(C)c1cc(-c2cnc(N)cc2C(F)(F)F)nc(N2CCOC[C@H]2C)n1` [Compound S-74], the IC50 in assay [1] (setting [5]) came to 28 nM; in assay [1] (setting [4]), 28 nM; in assay [2] it was 2090 nM; in assay [3], 1010 nM; on PI3K-γ kinase (p110γ) it was 2500 nM.
For the molecule `CC(C)(c1cc(-c2cnc(N)cc2C(F)(F)F)nc(N2CCOCC2)n1)S(=O)(=O)c1cccc(F)c1` [Compound S-60], the IC50 in assay [1] (setting [4]) amounted to 35 nM.
For `C[C@H]1COCCN1c1nc(-c2cnc(N)cc2Cl)cc(C(C)(C)O)n1` [Compound S-73], the IC50 in assay [1] (setting [5]) came to 14 nM; in assay [1] (setting [4]), 14 nM; in assay [2], 396 nM; in assay [3] it was 514 nM; on PI3K-γ kinase (p110γ), 623 nM; with MCF-7 cells it was 176 nM.
`CCS(=O)(=O)C1(c2cc(-c3cnc(N)cc3C(F)(F)F)nc(N3CCOCC3)n2)CC1` [Compound S-28]: the values for the IC50 (in assay [2]; in assay [3]; on PI3K-γ kinase (p110γ)) were 121 nM, 78 nM and 765 nM, respectively.
As for `CC(C)(c1cc(-c2cnc(N)cc2C(F)(F)F)nc(N2CCOCC2)n1)S(=O)(=O)c1ccc(F)c(F)c1` [Compound S-79], the IC50 in assay [1] (setting [4]) is 55 nM.
Still for that read-out and setting: with `CC(C)(c1cc(-c2cnc(N)cc2C(F)(F)F)nc(N2CCOCC2)n1)S(=O)(=O)c1ccc(F)cc1` [Compound S-69] the figure was 59 nM.
As for `CC(C)(c1cc(-c2cnc(N)cc2C(F)(F)F)nc(N2CCOCC2)n1)S(C)(=O)=O` [Compound S-16], the IC50 in assay [2] is 196 nM; in assay [3] it was 244 nM; on PI3K-γ kinase (p110γ), 138 nM.
For `Cc1cnc(C2(c3cc(-c4cnc(N)cc4C(F)(F)F)nc(N4CCOCC4)n3)CC2)o1` [Compound S-61, 5-(6-(1-(5-methyloxazol-2-yl)cyclopropyl)-2-morpholinopyrimidin-4-yl)-4-(trifluoromethyl)pyridin-2-amine], the IC50 in assay [1] (setting [4]) was determined as 195 nM.
